Experimental data taken from patent US20230381142A1, “ANTILEISHMANIAL COMPOUNDS, COMPOSITIONS AND USE THEREOF” (TRUSTEES OF BOSTON UNIVERSITY, priority 2022, published 2023).

Test: UCSD infection assay, host cell cytotoxicity (CC50)
Type: cell-based
Details: host macrophages infected with L. donovani; cytotoxicity against host macrophages

Structure (SMILES): COc1ccc(N2C(=O)c3[nH]nc(CC(C)C)c3C2c2ccc(F)cc2)cc1 (racemic) [Compound 1, 4-(4-fluorophenyl)-3-isobutyl-5-(4-methoxyphenyl)-4,5-dihydropyrrolo[3,4-c]pyrazol-6(1H)-one]
- CC50 at 72 h: > 20 µM
